How the values were obtained:
[1] = tested on: Otsuka Long-Evans Tokushima Fatty (OLETF) rats; assay: CBD effect on brown adipose tissue loss in OLETF rats with progressive MetS; format: in vivo, rat; settings: 15-week-old OLETF rats, 200 mg CBD/kg oral gavage for 5 weeks; p<0.05; BAT estimated from 2-dimensional images (surface area)
Method: (§1) To assess the effects of a CBD on BAT loss associated with progressive MetS, a cohort of 15-week-old Otsuka Long-Evans Tokushima Fatty (OLETF) rats were administered 200 mg CBD/kg by oral gavage for 5 weeks. Animals were fed ad libitum and monitored in metabolic cages alongside vehicle-treated OLETF and lean strain control Long-Evans Tokushima Otsuka (LETO) rats. Brown adipose tissue content was estimated from 2-dimensional images to quantify surface area. The Otsuka Long-Evans Tokushima Fatty (OLETF) rat is a monogenic model of diet-induced obesity accelerated by a mutation in the CCK receptor. […] At >40 weeks of age, OLETF rats suffer from severe metabolic dysfunction and therefore serve as a model of aged, severe MetS.

[2] = tested on: Otsuka Long-Evans Tokushima Fatty (OLETF) rats; assay: Plasma metabolomics in CBD-treated OLETF rats; format: in vivo, rat; settings: OLETF vs. CBD, 200 mg CBD/kg oral gavage for 5 weeks, p<0.0001
Source text: FIGS. 2A-2C CBD increases BAIBA. A) Metabolomic map showing metabolites with p<0.05 after Student's t-test, representing mean plasma peak intensity fold-changes between groups in metabolites with q<0.2, for OLETF vs. CBD, B) top 5 metabolites, associated pathway and change directionality listed by lowest p-value for OLETF vs. CBD and C) raw mean peak area of BAIBA. *p<0.05 compared to LETO and †p<0.05 compared to OLETF by ANOVA with Tukey's HSD or student's t-test.
as §1

SMILES: C=C(C)[C@@H]1CCC(C)=C[C@H]1c1c(O)cc(CCCCC)cc1O [CBD, Cannabidiol]
- BAT masses preserved (of BAT lost in OLETF control) [1]: 55%
- increase in ß-aminoisobutyric acid (BAIBA) [2]: 2.1 fold
